Each compound was assayed against T1, Platypus Mel1C (Ornithorhynchus anatinus, UniProt A0A2P1K6N2) (assay: 2-[125I]-iodomelatonin competition binding, membranes from stably transfected CHO cells, platypus Mel1c). Details: membranes from stably transfected CHO cells; radioligand 2-[125I]-iodomelatonin.
T1 sequence (A0A2P1K6N2 1-349): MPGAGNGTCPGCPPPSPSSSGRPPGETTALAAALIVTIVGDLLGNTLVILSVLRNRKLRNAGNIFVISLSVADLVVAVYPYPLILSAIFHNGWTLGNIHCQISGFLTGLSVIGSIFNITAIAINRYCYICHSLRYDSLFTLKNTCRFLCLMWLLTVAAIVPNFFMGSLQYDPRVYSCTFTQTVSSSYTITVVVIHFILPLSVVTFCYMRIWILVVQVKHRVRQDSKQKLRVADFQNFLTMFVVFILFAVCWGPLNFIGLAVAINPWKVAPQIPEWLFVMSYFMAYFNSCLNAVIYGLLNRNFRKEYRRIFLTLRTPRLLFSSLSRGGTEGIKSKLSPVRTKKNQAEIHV
Protocol: (§1) CHO-Flp-In cells (Thermo Fisher Scientific, Waltham, USA) were cultivated in the presence of zeocin (0.1 mg/ml). The cells were cotransfected with either platypus (cloned sequence that will be submitted to GenBank) Mel1c/pcDNA5-FRT (platypus Mel1c) or X. laevis (NM 001087919.1) Mel1c/pcDNA5-FRT (clawed frog Mel1c) and Flp recombinase expression pOG44 plasmid using PEIpro (Invitrogen, Carlsbad, CA). CHO cells stably expressing platypus Mel1c or clawed frog Mel1c were selected using hygromycin (0.6 mg/ml). CHO-Flp-In-platypus Mel1c cells were grown in HAM F12 with 2 mM glutamine and supplemented with 10% fetal calf serum. Cells were selected using antibiotic pressure (hygromycin) for 72 h. […] After confirmation of the presence of the transgene, the cells were amplified up to 2 x 10^9 cells. This material was used to prepare the cell membranes used in further pharmacological experiments.
(§2) This standard procedure was described in a previous experiment with CHO cells expressing the sheep MT2 receptor [23]. […] The resulting pellet was suspended in 5 mM Tris/HCl (pH 7.4) containing 2 mM EDTA and homogenized using a Kinematica polytron. The homogenate was then centrifuged (20,000g, 30 min, 4°C) and the resulting pellet suspended in 75 mM Tris/HCl (pH 7.4) containing 2 mM EDTA and 12.5 mM MgCl2. The protein content was determined according to the method of Lowry et al. using the Bio-Rad kit (Bio-Rad SA, Ivry-sur-Seine, France). Aliquots of membrane preparations were stored in binding buffer (50 mM Tris/HCl, pH 7.4 containing 5 mM MgCl2 and 1 mM EDTA) at –80°C until use.
(§3) This approach has been described very often by our laboratory and others. […] The results were expressed as Ki, taking into account the concentration of radioligand used in each experiment. […] The reaction was stopped by rapid filtration through GF/B Unifilters, followed by three successive washes with ice-cold buffer. Data were analyzed by using the program PRISM (GraphPad Software Inc., San Diego, CA). For saturation assays, the density of binding sites (Bmax) and the dissociation constant of the radioligand (KD) were calculated according to the Scatchard method. […] A similar protocol was used when the binding was performed on whole cells, as described by Legros et al.. As per Plos One policy, all the raw data–listings from radioactivity counter are attached as raw files (Supplementary Tables A to M in S1 Data).
For “2-(2-[(2-iodo-4,5-dimethoxyphenyl)methyl]-4,5-dimethoxy phenyl [DIV880]”, the pKi was 6.2.
For “(S)-N-(2-(1,6,7,8-tetrahydro-2H-indeno-(5,4)furan-8-yl)ethyl)propionamide [Ramelteon ®]”, the “Platypus Mel1C” value was 9.9.
Work on COc1cc(I)c2[nH]cc(CCNC(C)=O)c2c1 [7-Iodomelatonin] yielded a pKi of 7.5.

Same assay, conditions: membranes from stably transfected CHO cells; radioligand 2-[125I]-iodomelatonin; read-out: Platypus Mel1C (converted)
In the case of COc1ccc2cccc(CCNC(C)=O)c2c1 [Agomelatin ®, N-(2-(7-methoxynaphthalen-1-yl)ethyl)acetamide], the Ki is reported as 0.398 nM.

The compounds below were run against T1, Platypus Mel1C (assay: 2-[125I]-iodomelatonin competition binding, transiently transfected COS7 cells, platypus Mel1c). Details: COS7 cells transiently transfected with Mel1c gene; radioligand 2-[125I]-iodomelatonin; two transfections, triplicate.
Protocol: (§4) COS7 cells obtained from the American Type Culture Collection were maintained in DMEM GlutaMAX (Thermo Fisher Scientific, Waltham, USA) supplemented with 10% (v/v) fetal calf serum. Nucleofection of COS7 cells was performed according to the manufacturer's instructions using the Nucleofector machine (Amaxa, Cologne, Germany). Adherent COS7 cells were washed in phosphate-buffered saline (PBS), trypsinized, and gently resuspended in V nucleofection solution to a final concentration of 7 × 10^6 cells/100 μl. Next, 5 μg of pCIneo/Mel1c vector was mixed with 100 μl of the COS7 cell suspension, transferred to a […] electroporation cuvette, and nucleofected using program A024 and an Amaxa Nucleofector apparatus. Just after the nucleofection, 500 μl of media supplemented with 20% (v/v) fetal calf serum was added to the cell suspension and cultured in a humidified 37°C, 5% CO2 incubator for 20 minutes. Fourteen million cells were transferred to a T225 flask containing 50 ml of media supplemented with 20% (v/v) fetal calf serum and cultured in a humidified 37°C, 5% CO2 incubator. Two days after transfection, the cells were harvested in PBS, pelleted, and stored at -80°C until use.
as §3
(§5) To obtain stable expression of the receptor for future studies, a preliminary step involving transient expression of the receptor was performed. The Mel1c receptors from the three species were expressed in transiently transfected COS7 cells. A limited number of compounds were tested in order to gain a preliminary perception of the characteristics of Mel1c from these species.
In the case of COc1ccc2cccc(CCNC(C)=O)c2c1 [Agomelatin ®, N-(2-(7-methoxynaphthalen-1-yl)ethyl)acetamide], the “pKi Ornithorhyncus anatinus” value is reported as 9.6.
“(S)-N-(2-(1,6,7,8-tetrahydro-2H-indeno-(5,4)furan-8-yl)ethyl)propionamide [Ramelteon ®]” was tested, and the “pKi Ornithorhyncus anatinus” value was 10.1.

Each compound was assayed against T2, hMT2 (Homo sapiens, UniProt P49286) (assay: 2-[125I]-iodomelatonin competition binding, human MT2). Details: not given.
T2 sequence (P49286 1-362): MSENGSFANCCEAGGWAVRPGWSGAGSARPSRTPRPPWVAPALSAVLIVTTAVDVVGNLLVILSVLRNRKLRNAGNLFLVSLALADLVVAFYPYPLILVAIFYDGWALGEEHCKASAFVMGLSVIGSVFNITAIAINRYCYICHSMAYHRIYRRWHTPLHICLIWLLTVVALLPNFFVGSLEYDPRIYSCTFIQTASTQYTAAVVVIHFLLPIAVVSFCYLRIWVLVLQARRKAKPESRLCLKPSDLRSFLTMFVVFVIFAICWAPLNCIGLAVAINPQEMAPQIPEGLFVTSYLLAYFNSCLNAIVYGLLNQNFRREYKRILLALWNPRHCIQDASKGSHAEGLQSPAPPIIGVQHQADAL
Protocol: as §3
COc1cc(I)c2[nH]cc(CCNC(C)=O)c2c1 [7-Iodomelatonin] was tested, and the hMT2 was 7.3.

Same assay, conditions: membranes from stably transfected CHO cells; radioligand 2-[125I]-iodomelatonin
For “2-(2-[(2-iodo-4,5-dimethoxyphenyl)methyl]-4,5-dimethoxy phenyl [DIV880]”, the hMT2 was 8.0.

These compounds were tested against T3, X. laevis Mel1c receptor (Xenopus laevis, UniProt P49219) (assay: 2-[125I]-iodomelatonin competition binding, transiently transfected COS7 cells, Xenopus Mel1c). Details: COS7 cells transiently transfected with Mel1c gene; radioligand 2-[125I]-iodomelatonin; two transfections, triplicate.
T3 construct: expressed in transfected cells; host or cells: COS7 (transient nucleofection, pCIneo vector)
T3 sequence (P49219 1-354 isoform P49219-2): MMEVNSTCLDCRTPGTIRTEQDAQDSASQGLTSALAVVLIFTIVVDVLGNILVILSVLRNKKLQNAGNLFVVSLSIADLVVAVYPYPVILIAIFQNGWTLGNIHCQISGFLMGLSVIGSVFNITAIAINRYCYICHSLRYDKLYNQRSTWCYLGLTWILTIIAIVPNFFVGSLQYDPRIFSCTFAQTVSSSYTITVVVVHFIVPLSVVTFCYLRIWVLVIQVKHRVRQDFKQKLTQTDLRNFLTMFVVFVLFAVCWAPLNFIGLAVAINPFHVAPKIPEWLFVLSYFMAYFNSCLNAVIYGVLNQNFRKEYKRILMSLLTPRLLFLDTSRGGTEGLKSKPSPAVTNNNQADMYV
Protocol: as §4, §3, §5
“(S)-N-(2-(1,6,7,8-tetrahydro-2H-indeno-(5,4)furan-8-yl)ethyl)propionamide [Ramelteon ®]” was tested, and the “pKi Xenopus laevis” value was 10.1.

Same assay, conditions: COS7 cells transiently transfected with Mel1c gene; radioligand 2-[125I]-iodomelatonin; two transfections, triplicate; read-out: pKi Xenopus laevis (converted)
With COc1ccc2cccc(CCNC(C)=O)c2c1 [Agomelatin ®, N-(2-(7-methoxynaphthalen-1-yl)ethyl)acetamide] the Ki was 0.631 nM.

Each compound was assayed against T4, Xenopus Mel1C (Xenopus laevis, UniProt P49219) (assay: 2-[125I]-iodomelatonin competition binding, membranes from stably transfected CHO cells, Xenopus Mel1c). Details: radioligand 2-[125I]-iodomelatonin.
T4 construct: expressed in transfected cells
T4 sequence (P49219 1-420): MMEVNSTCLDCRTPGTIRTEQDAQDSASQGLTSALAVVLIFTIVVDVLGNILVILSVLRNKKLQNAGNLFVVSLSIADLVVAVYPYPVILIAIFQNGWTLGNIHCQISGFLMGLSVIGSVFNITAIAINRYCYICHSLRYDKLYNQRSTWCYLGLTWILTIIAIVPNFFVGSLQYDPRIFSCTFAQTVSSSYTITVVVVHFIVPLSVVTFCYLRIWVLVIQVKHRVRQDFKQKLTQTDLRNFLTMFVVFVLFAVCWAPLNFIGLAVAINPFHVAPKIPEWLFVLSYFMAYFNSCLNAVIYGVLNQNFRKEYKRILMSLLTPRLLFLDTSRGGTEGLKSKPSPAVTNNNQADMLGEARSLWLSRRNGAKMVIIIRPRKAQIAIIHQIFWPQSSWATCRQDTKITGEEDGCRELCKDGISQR
Protocol: as §1, §2, §3
Compound COc1ccc2cccc(CCNC(C)=O)c2c1 [Agomelatin ®, N-(2-(7-methoxynaphthalen-1-yl)ethyl)acetamide] has a Ki of 0.794 nM.
“2-(2-[(2-iodo-4,5-dimethoxyphenyl)methyl]-4,5-dimethoxy phenyl [DIV880]” showed a pKi of 5.9.
With “(S)-N-(2-(1,6,7,8-tetrahydro-2H-indeno-(5,4)furan-8-yl)ethyl)propionamide [Ramelteon ®]” the “Xenopus Mel1C” value was 9.9.
Compound COc1cc(I)c2[nH]cc(CCNC(C)=O)c2c1 [7-Iodomelatonin] has a pKi of 7.3.

These compounds were tested against hMT1 (Homo sapiens, UniProt P48039) (assay: 2-[125I]-iodomelatonin competition binding, human MT1). Details: not given.
Chain of hMT1 (P48039 whole entry): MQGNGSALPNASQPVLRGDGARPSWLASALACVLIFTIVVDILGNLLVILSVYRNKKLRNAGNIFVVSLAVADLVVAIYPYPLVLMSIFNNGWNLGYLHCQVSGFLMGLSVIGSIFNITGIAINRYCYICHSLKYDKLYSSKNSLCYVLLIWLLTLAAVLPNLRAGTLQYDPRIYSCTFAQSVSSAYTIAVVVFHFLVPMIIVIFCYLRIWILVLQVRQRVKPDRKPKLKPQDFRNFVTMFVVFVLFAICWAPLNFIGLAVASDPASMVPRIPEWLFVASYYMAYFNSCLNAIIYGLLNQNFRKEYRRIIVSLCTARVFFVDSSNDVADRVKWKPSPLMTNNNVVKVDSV
Set-up: hMT1: unit not given here
Protocol: as §3
COc1cc(I)c2[nH]cc(CCNC(C)=O)c2c1 [7-Iodomelatonin] showed a hMT1 of 7.3.

Same assay, conditions: membranes from stably transfected CHO cells; radioligand 2-[125I]-iodomelatonin
Work on “2-(2-[(2-iodo-4,5-dimethoxyphenyl)methyl]-4,5-dimethoxy phenyl [DIV880]” yielded a hMT1 of 6.1.
Work on “(S)-N-(2-(1,6,7,8-tetrahydro-2H-indeno-(5,4)furan-8-yl)ethyl)propionamide [Ramelteon ®]” yielded a hMT1 of 10.1.

Each compound was assayed against T5, G. gallus Mel1c receptor (Gallus gallus, UniProt P49288) (assay: 2-[125I]-iodomelatonin competition binding, transiently transfected COS7 cells, chicken Mel1c). Details: COS7 cells transiently transfected with Mel1c gene; radioligand 2-[125I]-iodomelatonin; two transfections, triplicate.
T5 construct: expressed in transfected cells; host or cells: COS7 (transient nucleofection, pCIneo vector)
T5 sequence (P49288 1-346): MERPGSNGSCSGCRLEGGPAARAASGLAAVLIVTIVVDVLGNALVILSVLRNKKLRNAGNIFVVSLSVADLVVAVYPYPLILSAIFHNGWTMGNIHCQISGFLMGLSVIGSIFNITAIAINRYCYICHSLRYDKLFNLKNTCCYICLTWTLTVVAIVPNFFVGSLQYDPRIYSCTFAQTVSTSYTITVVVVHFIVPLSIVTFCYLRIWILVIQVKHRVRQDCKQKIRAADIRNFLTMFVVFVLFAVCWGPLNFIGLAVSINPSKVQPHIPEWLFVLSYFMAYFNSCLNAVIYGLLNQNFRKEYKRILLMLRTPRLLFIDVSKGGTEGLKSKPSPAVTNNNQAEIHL
Protocol: as §4, §3, §5
With “(S)-N-(2-(1,6,7,8-tetrahydro-2H-indeno-(5,4)furan-8-yl)ethyl)propionamide [Ramelteon ®]” the “pKi Gallus gallus” value was 9.8.

Reference: paper PMC5846726, “Characterization of the Mel1c melatoninergic receptor in platypus (Ornithorhynchus anatinus)” (PLoS ONE, 2018)
